Reference: ChEMBL document CHEMBL4316596, “Antimicrobial Peptides with High Proteolytic Resistance for Combating Gram-Negative Bacteria” (J Med Chem, 2019)

Tests used:
[1] = tested on: Escherichia coli; experiment: Antimicrobial activity against Escherichia coli ATCC 25922 after 24 hrs by NCCLS-protocol based assay; assay type: functional; conditions: ATCC 25922, 24 h
[2] = tested on: Escherichia coli; experiment: Antimicrobial activity against Escherichia coli UB1005 after 24 hrs by NCCLS-protocol based assay; assay type: functional; conditions: UB1005, 24 h
[3] = tested on: Escherichia coli; experiment: Antimicrobial activity against Escherichia coli 078 after 24 hrs by NCCLS-protocol based assay; assay type: functional; conditions: Escherichia coli, 078, 24 h
[4] = tested on: Escherichia coli; experiment: Antimicrobial activity against Escherichia coli K88 after 24 hrs by NCCLS-protocol based assay; assay type: functional; conditions: K88, 24 h
[5] = tested on: Escherichia coli; experiment: Antimicrobial activity against Escherichia coli K99 after 24 hrs by NCCLS-protocol based assay; assay type: functional; conditions: K99, 24 h
[6] = tested on: Pseudomonas aeruginosa; experiment: Antimicrobial activity against Pseudomonas aeruginosa ATCC 27853 after 24 hrs by NCCLS-protocol based assay; assay type: functional; conditions: ATCC 27853, 24 h
[7] = tested on: Pseudomonas aeruginosa; experiment: Antimicrobial activity against Pseudomonas aeruginosa PAO1 after 24 hrs by NCCLS-protocol based assay; assay type: functional; conditions: PAO1, 24 h
[8] = tested on: Pseudomonas aeruginosa; experiment: Antimicrobial activity against Pseudomonas aeruginosa CICC 21630 clinical isolates after 24 hrs by NCCLS-protocol based assay; assay type: functional; conditions: CICC 21630, 24 h
[9] = tested on: Pseudomonas aeruginosa; experiment: Antimicrobial activity against Pseudomonas aeruginosa 26305 clinical isolates after 24 hrs by NCCLS-protocol based assay; assay type: functional; conditions: Pseudomonas aeruginosa, 26305, 24 h
[10] = tested on: Pseudomonas aeruginosa; experiment: Antimicrobial activity against Pseudomonas aeruginosa CICC 21625 clinical isolates after 24 hrs by NCCLS-protocol based assay; assay type: functional; conditions: CICC 21625, 24 h
[11] = tested on: Pseudomonas aeruginosa; experiment: Antimicrobial activity against Pseudomonas aeruginosa 25349 clinical isolates after 24 hrs by NCCLS-protocol based assay; assay type: functional; conditions: Pseudomonas aeruginosa, 25349, 24 h
[12] = tested on: Salmonella typhimurium; experiment: Antimicrobial activity against Salmonella typhimurium ATCC 14028 after 24 hrs by NCCLS-protocol based assay; assay type: functional, Salmonella enterica subsp. enterica serovar Typhimurium; conditions: Salmonella enterica, ATCC 14028, 24 h
[13] = tested on: Salmonella typhimurium; experiment: Antimicrobial activity against Salmonella typhimurium C7731 after 24 hrs by NCCLS-protocol based assay; assay type: functional, Salmonella enterica subsp. enterica serovar Typhimurium; conditions: Salmonella enterica, C7731, 24 h
[14] = Antimicrobial activity against Salmonella pullorum C7913 after 24 hrs by NCCLS-protocol based assay; assay type: functional, Salmonella enterica subsp. enterica serovar Pullorum; conditions: Salmonella enterica, C7913, 24 h
[15] = tested on: Acinetobacter baumannii; experiment: Antimicrobial activity against Acinetobacter baumannii after 24 hrs by NCCLS-protocol based assay; assay type: functional
[16] = tested on: Klebsiella pneumoniae; experiment: Antimicrobial activity against Klebsiella pneumoniae after 24 hrs by NCCLS-protocol based assay; assay type: functional
[17] = tested on: Escherichia coli; experiment: Bactericidal activity against Escherichia coli ATCC 25922 incubated for 4 hrs followed by culture spread on agar plates and cultured overnight; assay type: functional; conditions: ATCC 25922, 4 h, read-out: MBC>99.9
[18] = tested on: Escherichia coli; experiment: Bactericidal activity against Escherichia coli UB1005 incubated for 4 hrs followed by culture spread on agar plates and cultured overnight; assay type: functional; conditions: UB1005, 4 h, read-out: MBC>99.9
[19] = tested on: Escherichia coli; experiment: Bactericidal activity against Escherichia coli 078 incubated for 4 hrs followed by culture spread on agar plates and cultured overnight; assay type: functional; conditions: Escherichia coli, 078, 4 h; read-out: MBC>99.9
[20] = tested on: Escherichia coli; experiment: Bactericidal activity against Escherichia coli K88 incubated for 4 hrs followed by culture spread on agar plates and cultured overnight; assay type: functional; conditions: K88, 4 h, read-out: MBC>99.9
[21] = tested on: Escherichia coli; experiment: Bactericidal activity against Escherichia coli K99 incubated for 4 hrs followed by culture spread on agar plates and cultured overnight; assay type: functional; conditions: K99, 4 h, read-out: MBC>99.9
[22] = tested on: Pseudomonas aeruginosa; experiment: Bactericidal activity against Pseudomonas aeruginosa ATCC 27853 incubated for 4 hrs followed by culture spread on agar plates and cultured overnight; assay type: functional; conditions: ATCC 27853, 4 h, read-out: MBC>99.9
[23] = tested on: Pseudomonas aeruginosa; experiment: Bactericidal activity against Pseudomonas aeruginosa PAO1 incubated for 4 hrs followed by culture spread on agar plates and cultured overnight; assay type: functional; conditions: PAO1, 4 h, read-out: MBC>99.9
[24] = tested on: Pseudomonas aeruginosa; experiment: Bactericidal activity against Pseudomonas aeruginosa CICC 21630 clinical isolates incubated for 4 hrs followed by culture spread on agar plates and cultured overnight; assay type: functional; conditions: CICC 21630, 4 h, read-out: MBC>99.9
[25] = tested on: Pseudomonas aeruginosa; experiment: Bactericidal activity against Pseudomonas aeruginosa 26305 clinical isolates incubated for 4 hrs followed by culture spread on agar plates and cultured overnight; assay type: functional; conditions: Pseudomonas aeruginosa, 26305, 4 h; read-out: MBC>99.9
[26] = tested on: Pseudomonas aeruginosa; experiment: Bactericidal activity against Pseudomonas aeruginosa CICC 21625 clinical isolates incubated for 4 hrs followed by culture spread on agar plates and cultured overnight; assay type: functional; conditions: CICC 21625, 4 h, read-out: MBC>99.9
[27] = tested on: Pseudomonas aeruginosa; experiment: Bactericidal activity against Pseudomonas aeruginosa 25349 clinical isolates incubated for 4 hrs followed by culture spread on agar plates and cultured overnight; assay type: functional; conditions: Pseudomonas aeruginosa, 25349, 4 h; read-out: MBC>99.9
[28] = tested on: Salmonella typhimurium; experiment: Bactericidal activity against Salmonella typhimurium ATCC 14028 incubated for 4 hrs followed by culture spread on agar plates and cultured overnight; assay type: functional, Salmonella enterica subsp. enterica serovar Typhimurium; conditions: Salmonella enterica, ATCC 14028, 4 h; read-out: MBC>99.9
[29] = tested on: Salmonella typhimurium; experiment: Bactericidal activity against Salmonella typhimurium C7731 incubated for 4 hrs followed by culture spread on agar plates and cultured overnight; assay type: functional, Salmonella enterica subsp. enterica serovar Typhimurium; conditions: Salmonella enterica, C7731, 4 h; read-out: MBC>99.9
[30] = Bactericidal activity against Salmonella pullorum C7913 incubated for 4 hrs followed by culture spread on agar plates and cultured overnight; assay type: functional, Salmonella enterica subsp. enterica serovar Pullorum; conditions: Salmonella enterica, C7913, 4 h; read-out: MBC>99.9
[31] = tested on: Acinetobacter baumannii; experiment: Bactericidal activity against Acinetobacter baumannii incubated for 4 hrs followed by culture spread on agar plates and cultured overnight; assay type: functional; conditions: read-out: MBC>99.9
[32] = tested on: Klebsiella pneumoniae; experiment: Bactericidal activity against Klebsiella pneumoniae incubated for 4 hrs followed by culture spread on agar plates and cultured overnight; assay type: functional; conditions: read-out: MBC>99.9

MIC95 [1] [µM]	MIC95 [2] [µM]	MIC95 [3] [µM]	MIC95 [4] [µM]	MIC95 [5] [µM]	MIC95 [6] [µM]	MIC95 [7] [µM]	MIC95 [8] [µM]	MIC95 [9] [µM]	MIC95 [10] [µM]	MIC95 [11] [µM]	MIC95 [12] [µM]	MIC95 [13] [µM]	MIC95 [14] [µM]	MIC95 [15] [µM]	MIC95 [16] [µM]	Substance	MBC [17] [µM]	MBC [18] [µM]	MBC [19] [µM]	MBC [20] [µM]	also measured
> 64	> 64	> 64	> 64	> 64	> 64	> 64	> 64	> 64	> 64	> 64	> 64	> 64	> 64	> 64	> 64	H-VKPVVKPVVKPVVKPVVKPVVKPVVKPV-NH2	> 64	> 64	> 64	> 64	MBC [21]: > 64 µM; MBC [22]: > 64 µM; MBC [23]: > 64 µM; MBC [24]: > 64 µM; MBC [25]: > 64 µM; MBC [26]: > 64 µM; MBC [27]: > 64 µM; MBC [28]: > 64 µM; MBC [29]: > 64 µM; MBC [30]: > 64 µM; MBC [31]: > 64 µM; MBC [32]: > 64 µM
64	32	64	8	16	> 64	> 64	> 64	> 64	> 64	> 64	16	32	8	4	> 64	H-VRPVVRPVVRPVVRPVVRPVVRPV-NH2	> 64	32	> 64	8	MBC [21]: 16 µM; MBC [22]: > 64 µM; MBC [23]: > 64 µM; MBC [24]: > 64 µM; MBC [25]: > 64 µM; MBC [26]: > 64 µM; MBC [27]: > 64 µM; MBC [28]: 32 µM; MBC [29]: 32 µM; MBC [30]: 16 µM; MBC [31]: 4 µM; MBC [32]: > 64 µM
8	8	8	8	16	> 64	> 64	> 64	> 64	> 64	> 64	8	16	4	4	32	H-VRPVVRPVVRPVVRPVVRPVVRPVVRPV-NH2	16	8	16	32	MBC [21]: 32 µM; MBC [22]: > 64 µM; MBC [23]: > 64 µM; MBC [24]: > 64 µM; MBC [25]: > 64 µM; MBC [26]: > 64 µM; MBC [27]: > 64 µM; MBC [28]: 16 µM; MBC [29]: 32 µM; MBC [30]: 8 µM; MBC [31]: 4 µM; MBC [32]: 64 µM
